{"source": "patent US20240299359A1", "about": "“PHARMACEUTICAL COMPOSITION FOR ANIMALS CONTAINING 5-HYDROXY-METHYLIMIDAZOLIDINE-2,4-DIONE COMPOUND AS ACTIVE INGREDIENT” (KYONGBO PHARM. CO., LTD., priority 2021, published 2024)", "key": {"[1]": {"experiment": "13-week repeated oral toxicity: weight measurement", "format": "in vivo, beagle", "settings": "for Weight: in kg (unit assumed)", "experimental": "During the 13-week test period starting from the day before administration, the weight was measured a total of 15 times before administration (pre), before administration on the day of administration, and every week over the 13-week test period after the first administration at a predetermined time (remaining feed measurement time) before administration of the test substance (on every Tuesday during the test period)."}, "[2]": {"experiment": "13-week repeated oral toxicity: feed intake", "format": "in vivo, beagle", "settings": "repeated oral once a day for 13 weeks", "experimental": "During the 13-week test period starting from the day before administration, feed intake was measured a total of 14 times before administration (pre) and every week on the weight measurement day for 13 weeks after the first administration. Approximately 200 g/day/head of solid feed was injected into a feed container at a predetermined time on the day before the weight measurement day and consumed freely. After 24 hours, the remaining feed was measured the next day."}}}
{"smiles": "CN1C(=O)NC(=O)C1O", "note": "(stereo not drawn) [KBP-001, 5-hydroxy-1-methylimidazolidine-2,4-dione]", "values": [{"measurement": "Weight, Mean", "setting": "[1]; 500 mg/kg repeated oral (G3), female, week 6, mean", "result": 9.8, "unit": "kg"}, {"measurement": "Weight, Mean", "setting": "[1]; 500 mg/kg repeated oral (G3), female, week 7, mean", "result": 9.8, "unit": "kg"}, {"measurement": "Weight, Mean", "setting": "[1]; 500 mg/kg repeated oral (G3), female, week 8, mean", "result": 9.8, "unit": "kg"}, {"measurement": "Weight, Mean", "setting": "[1]; 500 mg/kg repeated oral (G3), female, week 9, mean", "result": 9.8, "unit": "kg"}, {"measurement": "Weight, Mean", "setting": "[1]; 500 mg/kg repeated oral (G3), female, week 10, mean", "result": 9.8, "unit": "kg"}, {"measurement": "Weight, Mean", "setting": "[1]; 500 mg/kg repeated oral (G3), female, week 11, mean", "result": 9.9, "unit": "kg"}, {"measurement": "Weight, Mean", "setting": "[1]; 500 mg/kg repeated oral (G3), female, week 12, mean", "result": 9.9, "unit": "kg"}, {"measurement": "Weight, Mean", "setting": "[1]; 500 mg/kg repeated oral (G3), female, week 13, mean", "result": 10, "unit": "kg"}, {"measurement": "Weight, Mean", "setting": "[1]; 500 mg/kg repeated oral (G3), female, week pre, mean", "result": 9.5, "unit": "kg"}, {"measurement": "Weight", "setting": "[1]; 500 mg/kg repeated oral (G3), male, week 0, individual animals", "result": 10.0}, {"measurement": "Weight, Mean", "setting": "[1]; 500 mg/kg repeated oral (G3), male, week 0, mean", "result": 9.9, "unit": "kg"}, {"measurement": "Weight, Mean", "setting": "[1]; 500 mg/kg repeated oral (G3), male, week 1, mean", "result": 10, "unit": "kg"}, {"measurement": "Weight, Mean", "setting": "[1]; 500 mg/kg repeated oral (G3), male, week 2, mean", "result": 9.9, "unit": "kg"}, {"measurement": "Weight, Mean", "setting": "[1]; 500 mg/kg repeated oral (G3), male, week 3, mean", "result": 9.9, "unit": "kg"}, {"measurement": "Weight, Mean", "setting": "[1]; 500 mg/kg repeated oral (G3), male, week 4, mean", "result": 10, "unit": "kg"}, {"measurement": "Weight, Mean", "setting": "[1]; 500 mg/kg repeated oral (G3), male, week 5, mean", "result": 10.1, "unit": "kg"}, {"measurement": "Weight", "setting": "[1]; 500 mg/kg repeated oral (G3), male, week 6, individual animals", "result": 10.1}, {"measurement": "Weight, Mean", "setting": "[1]; 500 mg/kg repeated oral (G3), male, week 6, mean", "result": 10.1, "unit": "kg"}, {"measurement": "Weight", "setting": "[1]; 500 mg/kg repeated oral (G3), male, week 7, individual animals", "result": 10.1}, {"measurement": "Weight, Mean", "setting": "[1]; 500 mg/kg repeated oral (G3), male, week 7, mean", "result": 10.1, "unit": "kg"}, {"measurement": "Weight", "setting": "[1]; 500 mg/kg repeated oral (G3), male, week 8, individual animals", "result": 10.3}, {"measurement": "Weight, Mean", "setting": "[1]; 500 mg/kg repeated oral (G3), male, week 8, mean", "result": 10.1, "unit": "kg"}, {"measurement": "Weight", "setting": "[1]; 500 mg/kg repeated oral (G3), male, week 9, individual animals", "result": 10.4}, {"measurement": "Weight, Mean", "setting": "[1]; 500 mg/kg repeated oral (G3), male, week 9, mean", "result": 10.1, "unit": "kg"}, {"measurement": "Weight", "setting": "[1]; 500 mg/kg repeated oral (G3), male, week 10, individual animals", "result": 10.4}, {"measurement": "Weight, Mean", "setting": "[1]; 500 mg/kg repeated oral (G3), male, week 10, mean", "result": 10.2, "unit": "kg"}, {"measurement": "Weight", "setting": "[1]; 500 mg/kg repeated oral (G3), male, week 11, individual animals", "result": 10.4}, {"measurement": "Weight, Mean", "setting": "[1]; 500 mg/kg repeated oral (G3), male, week 11, mean", "result": 10.1, "unit": "kg"}, {"measurement": "Weight", "setting": "[1]; 500 mg/kg repeated oral (G3), male, week 12, individual animals", "result": 10.3}, {"measurement": "Weight, Mean", "setting": "[1]; 500 mg/kg repeated oral (G3), male, week 12, mean", "result": 10.2, "unit": "kg"}, {"measurement": "Weight", "setting": "[1]; 500 mg/kg repeated oral (G3), male, week 13, individual animals", "result": 10.5}, {"measurement": "Weight, Mean", "setting": "[1]; 500 mg/kg repeated oral (G3), male, week 13, mean", "result": 10.3, "unit": "kg"}, {"measurement": "Weight", "setting": "[1]; 500 mg/kg repeated oral (G3), male, week pre, individual animals", "result": 10.1}, {"measurement": "Weight, Mean", "setting": "[1]; 500 mg/kg repeated oral (G3), male, week pre, mean", "result": 10, "unit": "kg"}, {"measurement": "Weight, Mean", "setting": "[1]; 1,000 mg/kg repeated oral (G4), female, week 0, mean", "result": 9.4, "unit": "kg"}, {"measurement": "Weight, Mean", "setting": "[1]; 1,000 mg/kg repeated oral (G4), female, week 1, mean", "result": 9.4, "unit": "kg"}, {"measurement": "Weight, Mean", "setting": "[1]; 1,000 mg/kg repeated oral (G4), female, week 2, mean", "result": 9.3, "unit": "kg"}, {"measurement": "Weight, Mean", "setting": "[1]; 1,000 mg/kg repeated oral (G4), female, week 3, mean", "result": 9.4, "unit": "kg"}, {"measurement": "Weight, Mean", "setting": "[1]; 1,000 mg/kg repeated oral (G4), female, week 4, mean", "result": 9.6, "unit": "kg"}, {"measurement": "Weight, Mean", "setting": "[1]; 1,000 mg/kg repeated oral (G4), female, week 5, mean", "result": 9.5, "unit": "kg"}, {"measurement": "Weight, Mean", "setting": "[1]; 1,000 mg/kg repeated oral (G4), female, week 6, mean", "result": 9.4, "unit": "kg"}, {"measurement": "Weight, Mean", "setting": "[1]; 1,000 mg/kg repeated oral (G4), female, week 7, mean", "result": 9.4, "unit": "kg"}, {"measurement": "Weight, Mean", "setting": "[1]; 1,000 mg/kg repeated oral (G4), female, week 8, mean", "result": 9.5, "unit": "kg"}, {"measurement": "Weight, Mean", "setting": "[1]; 1,000 mg/kg repeated oral (G4), female, week 9, mean", "result": 9.7, "unit": "kg"}, {"measurement": "Weight, Mean", "setting": "[1]; 1,000 mg/kg repeated oral (G4), female, week 10, mean", "result": 0.8, "unit": "kg"}, {"measurement": "Weight, Mean", "setting": "[1]; 1,000 mg/kg repeated oral (G4), female, week 11, mean", "result": 9.8, "unit": "kg"}, {"measurement": "Weight, Mean", "setting": "[1]; 1,000 mg/kg repeated oral (G4), female, week 12, mean", "result": 9.8, "unit": "kg"}, {"measurement": "Weight, Mean", "setting": "[1]; 1,000 mg/kg repeated oral (G4), female, week 13, mean", "result": 9.8, "unit": "kg"}, {"measurement": "Weight, Mean", "setting": "[1]; 1,000 mg/kg repeated oral (G4), female, week pre, mean", "result": 9.4, "unit": "kg"}, {"measurement": "Weight, Mean", "setting": "[1]; 1,000 mg/kg repeated oral (G4), male, week 0, mean", "result": 10.2, "unit": "kg"}, {"measurement": "Weight, Mean", "setting": "[1]; 1,000 mg/kg repeated oral (G4), male, week 1, mean", "result": 10.2, "unit": "kg"}, {"measurement": "Weight, Mean", "setting": "[1]; 1,000 mg/kg repeated oral (G4), male, week 2, mean", "result": 10.1, "unit": "kg"}, {"measurement": "Weight, Mean", "setting": "[1]; 1,000 mg/kg repeated oral (G4), male, week 3, mean", "result": 10, "unit": "kg"}, {"measurement": "Weight, Mean", "setting": "[1]; 1,000 mg/kg repeated oral (G4), male, week 4, mean", "result": 10.2, "unit": "kg"}, {"measurement": "Weight, Mean", "setting": "[1]; 1,000 mg/kg repeated oral (G4), male, week 5, mean", "result": 10.3, "unit": "kg"}, {"measurement": "Weight, Mean", "setting": "[1]; 1,000 mg/kg repeated oral (G4), male, week 6, mean", "result": 10, "unit": "kg"}, {"measurement": "Weight, Mean", "setting": "[1]; 1,000 mg/kg repeated oral (G4), male, week 7, mean", "result": 10.1, "unit": "kg"}, {"measurement": "Weight, Mean", "setting": "[1]; 1,000 mg/kg repeated oral (G4), male, week 8, mean", "result": 10.1, "unit": "kg"}, {"measurement": "Weight, Mean", "setting": "[1]; 1,000 mg/kg repeated oral (G4), male, week 9, mean", "result": 10.2, "unit": "kg"}, {"measurement": "Weight, Mean", "setting": "[1]; 1,000 mg/kg repeated oral (G4), male, week 10, mean", "result": 10.2, "unit": "kg"}, {"measurement": "Weight, Mean", "setting": "[1]; 1,000 mg/kg repeated oral (G4), male, week 11, mean", "result": 10.2, "unit": "kg"}, {"measurement": "Weight, Mean", "setting": "[1]; 1,000 mg/kg repeated oral (G4), male, week 12, mean", "result": 10.2, "unit": "kg"}, {"measurement": "Weight, Mean", "setting": "[1]; 1,000 mg/kg repeated oral (G4), male, week 13, mean", "result": 10.2, "unit": "kg"}, {"measurement": "Weight, Mean", "setting": "[1]; 1,000 mg/kg repeated oral (G4), male, week pre, mean", "result": 10.2, "unit": "kg"}, {"measurement": "weight compared with control group", "setting": "[1]; repeated oral once a day for 13 weeks, male and female", "result": "no significant differences in weight from the control group was observed"}, {"measurement": "feed intake", "setting": "[2]", "result": "no significant difference in feed intake between respective groups"}]}
